Results reported in ChEMBL document CHEMBL1134020, “3,4-Dihydro-1-isoquinolinamines: a novel class of nitric oxide synthase inhibitors with a range of isoform selectivity and potency” (Bioorg Med Chem Lett, 2001).
Where “and” joins values, the source holds several entries; their conditions need not be identical. Equal values may be shown once.

Experiments:
Nitric oxide synthase 1 = Nitric oxide synthase 1 (Rattus norvegicus, UniProt P29476); experiment: Inhibition of conversion of [3H]L-Arg to [3H]L-citrulline catalyzed by neuronal NOS (n NOS) from rat cerebellum; type: functional, tissue-based
Sequence of Nitric oxide synthase 1 (P29476 whole entry): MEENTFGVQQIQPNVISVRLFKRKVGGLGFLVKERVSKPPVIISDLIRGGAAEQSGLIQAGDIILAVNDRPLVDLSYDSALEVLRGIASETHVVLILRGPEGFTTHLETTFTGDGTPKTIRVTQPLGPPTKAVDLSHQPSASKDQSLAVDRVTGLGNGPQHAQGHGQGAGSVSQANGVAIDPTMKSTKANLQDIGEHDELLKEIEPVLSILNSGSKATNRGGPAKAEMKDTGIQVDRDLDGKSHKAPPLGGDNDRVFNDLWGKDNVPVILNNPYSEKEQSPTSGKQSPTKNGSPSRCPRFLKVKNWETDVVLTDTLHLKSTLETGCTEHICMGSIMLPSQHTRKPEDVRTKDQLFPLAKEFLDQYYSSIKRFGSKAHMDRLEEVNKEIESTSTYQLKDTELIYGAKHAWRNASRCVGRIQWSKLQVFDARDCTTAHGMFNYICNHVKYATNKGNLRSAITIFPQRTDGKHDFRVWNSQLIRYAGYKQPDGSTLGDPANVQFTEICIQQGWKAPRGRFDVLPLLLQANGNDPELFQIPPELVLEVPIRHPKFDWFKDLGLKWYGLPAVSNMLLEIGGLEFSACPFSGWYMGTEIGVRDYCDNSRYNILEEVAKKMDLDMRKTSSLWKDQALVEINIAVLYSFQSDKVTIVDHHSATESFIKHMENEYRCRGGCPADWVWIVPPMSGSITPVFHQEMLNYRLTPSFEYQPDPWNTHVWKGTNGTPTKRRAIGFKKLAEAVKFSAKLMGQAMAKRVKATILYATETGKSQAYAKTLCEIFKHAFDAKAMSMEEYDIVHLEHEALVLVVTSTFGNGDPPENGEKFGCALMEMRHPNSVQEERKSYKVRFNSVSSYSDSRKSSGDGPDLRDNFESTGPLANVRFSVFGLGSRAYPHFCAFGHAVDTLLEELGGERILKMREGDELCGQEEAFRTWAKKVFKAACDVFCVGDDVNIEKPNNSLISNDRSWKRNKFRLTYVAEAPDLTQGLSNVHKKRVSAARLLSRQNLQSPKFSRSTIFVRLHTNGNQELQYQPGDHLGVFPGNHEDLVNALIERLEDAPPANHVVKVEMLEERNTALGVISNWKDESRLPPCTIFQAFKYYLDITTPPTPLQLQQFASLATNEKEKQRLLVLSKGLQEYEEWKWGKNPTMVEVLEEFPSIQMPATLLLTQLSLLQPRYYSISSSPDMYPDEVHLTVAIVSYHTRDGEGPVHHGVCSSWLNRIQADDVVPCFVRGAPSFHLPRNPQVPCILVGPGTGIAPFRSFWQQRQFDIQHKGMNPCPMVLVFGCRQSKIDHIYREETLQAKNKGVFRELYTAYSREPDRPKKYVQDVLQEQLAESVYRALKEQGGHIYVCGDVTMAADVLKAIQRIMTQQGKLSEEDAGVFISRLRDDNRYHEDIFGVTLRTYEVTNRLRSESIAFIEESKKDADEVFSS

Nitric oxide synthase 3 = target: T1, Nitric oxide synthase 3 (Homo sapiens, UniProt P29474); experiment: Ability to inhibit conversion of [3H]L-Arg to [3H]L-citrulline catalyzed by endothelial NOS (e NOS) from HUVEC cells; type: functional, cell-based
T1 sequence (P29474 whole entry): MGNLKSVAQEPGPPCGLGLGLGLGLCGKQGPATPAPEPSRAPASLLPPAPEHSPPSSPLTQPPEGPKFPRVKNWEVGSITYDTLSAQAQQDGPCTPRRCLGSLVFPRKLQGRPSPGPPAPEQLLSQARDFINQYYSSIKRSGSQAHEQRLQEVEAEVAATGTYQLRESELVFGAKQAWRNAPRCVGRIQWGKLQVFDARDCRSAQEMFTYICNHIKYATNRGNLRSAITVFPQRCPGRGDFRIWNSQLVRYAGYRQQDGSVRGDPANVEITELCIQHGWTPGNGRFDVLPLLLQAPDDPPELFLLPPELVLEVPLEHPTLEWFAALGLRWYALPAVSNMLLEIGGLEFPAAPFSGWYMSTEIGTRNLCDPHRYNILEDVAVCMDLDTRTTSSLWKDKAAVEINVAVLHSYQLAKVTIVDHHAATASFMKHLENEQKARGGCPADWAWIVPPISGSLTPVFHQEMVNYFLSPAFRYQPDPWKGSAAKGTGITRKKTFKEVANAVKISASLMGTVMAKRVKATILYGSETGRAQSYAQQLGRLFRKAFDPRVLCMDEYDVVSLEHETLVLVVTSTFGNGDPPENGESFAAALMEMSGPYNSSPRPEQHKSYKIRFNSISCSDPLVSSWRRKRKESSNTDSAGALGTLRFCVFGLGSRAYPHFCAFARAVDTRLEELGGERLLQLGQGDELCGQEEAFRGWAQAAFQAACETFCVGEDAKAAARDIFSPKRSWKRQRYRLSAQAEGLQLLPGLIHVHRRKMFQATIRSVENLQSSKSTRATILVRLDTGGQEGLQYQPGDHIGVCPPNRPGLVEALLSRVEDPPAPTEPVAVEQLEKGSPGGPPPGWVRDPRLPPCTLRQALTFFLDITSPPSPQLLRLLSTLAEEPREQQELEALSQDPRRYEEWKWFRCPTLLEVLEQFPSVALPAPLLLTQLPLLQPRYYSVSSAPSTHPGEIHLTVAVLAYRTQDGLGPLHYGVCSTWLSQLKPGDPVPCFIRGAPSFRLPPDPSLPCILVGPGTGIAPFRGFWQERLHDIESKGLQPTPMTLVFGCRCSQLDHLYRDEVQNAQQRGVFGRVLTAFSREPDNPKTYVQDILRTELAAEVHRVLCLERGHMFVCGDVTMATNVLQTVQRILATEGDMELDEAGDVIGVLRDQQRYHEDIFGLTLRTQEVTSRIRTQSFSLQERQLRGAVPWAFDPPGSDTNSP

[1] = target: T2, Nitric oxide synthase, inducible (Homo sapiens, UniProt P35228); experiment: Ability to inhibit conversion of [3H]L-Arg to [3H]L-citrulline catalyzed by inducible NOS (i NOS) from human DLD-1 cells; type: functional, cell-based
T2 sequence (P35228 whole entry): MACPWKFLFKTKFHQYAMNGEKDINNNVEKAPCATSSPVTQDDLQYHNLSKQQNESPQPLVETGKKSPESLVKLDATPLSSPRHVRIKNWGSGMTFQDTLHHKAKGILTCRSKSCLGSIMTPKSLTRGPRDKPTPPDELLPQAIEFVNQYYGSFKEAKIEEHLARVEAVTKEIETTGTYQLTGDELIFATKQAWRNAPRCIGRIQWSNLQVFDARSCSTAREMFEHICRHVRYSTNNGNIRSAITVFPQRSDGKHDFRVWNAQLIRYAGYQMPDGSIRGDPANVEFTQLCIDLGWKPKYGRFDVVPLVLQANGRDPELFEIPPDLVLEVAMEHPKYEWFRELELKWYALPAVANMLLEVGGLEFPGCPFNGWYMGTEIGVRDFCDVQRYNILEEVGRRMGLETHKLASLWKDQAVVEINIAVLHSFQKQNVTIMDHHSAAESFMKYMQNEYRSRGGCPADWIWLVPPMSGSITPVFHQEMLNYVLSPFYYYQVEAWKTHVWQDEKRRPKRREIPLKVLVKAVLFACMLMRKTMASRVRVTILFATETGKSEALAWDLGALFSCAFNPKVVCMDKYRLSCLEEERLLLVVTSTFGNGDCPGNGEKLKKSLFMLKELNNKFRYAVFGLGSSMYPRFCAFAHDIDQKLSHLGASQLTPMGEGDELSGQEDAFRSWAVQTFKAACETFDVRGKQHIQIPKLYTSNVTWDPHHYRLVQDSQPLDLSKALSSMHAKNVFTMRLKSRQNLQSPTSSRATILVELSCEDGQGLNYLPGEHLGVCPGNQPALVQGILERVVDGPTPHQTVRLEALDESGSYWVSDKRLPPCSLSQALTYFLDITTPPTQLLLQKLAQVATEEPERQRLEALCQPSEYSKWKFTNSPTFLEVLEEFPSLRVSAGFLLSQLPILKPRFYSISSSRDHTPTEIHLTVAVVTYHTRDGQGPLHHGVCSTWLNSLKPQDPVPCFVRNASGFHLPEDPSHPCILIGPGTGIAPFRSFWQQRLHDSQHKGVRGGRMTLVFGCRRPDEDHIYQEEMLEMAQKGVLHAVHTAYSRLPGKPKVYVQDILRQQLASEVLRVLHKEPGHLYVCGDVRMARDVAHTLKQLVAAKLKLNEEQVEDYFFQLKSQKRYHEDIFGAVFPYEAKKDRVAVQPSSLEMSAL

Rattus norvegicus = species on record: Rattus norvegicus; experiment: Ability (at 100 catalyzed by neuronal NOS (n NOS) from rat cerebellum; type: functional
[2] = target: T3, Nitric oxide synthase 3 (Homo sapiens) (UniProt P29474); experiment: Ability (at 100 catalyzed by endothelial NOS (e NOS) from HUVEC cells; type: functional, cell-based; conditions: concentration not given here
T3 sequence (whole entry): T1 sequence (P29474 whole entry)

DLD-1 [3] = experiment: (§1) Ability (at 100 catalyzed by inducible NOS (i NOS) from human DLD-1 cells; type: functional
[4] = target: T2, Nitric oxide synthase, inducible; experiment: Inhibitory concentration against nitric oxide synthesis in intact DLD-1 cells; type: functional, cell-based
DLD-1 [5] = experiment: as §1; type: functional, cell-based

IC50 (Nitric oxide synthase 1) [µM]	IC50 (Nitric oxide synthase 3) [µM]	IC50 [1] [µM]	inhibition [2]	IC50 [4] [µM]	Compound	Inhibition (Rattus norvegicus) [%]	Inhibition (DLD-1 [3]) [%]	Inhibition (DLD-1 [5]) [%]
20	100	9	–	–	NC1=NC(c2ccc(F)cc2)Cc2cc(F)ccc21 (centres undefined)	–	–	–
–	6	–	< 25%	–	NC1=NC(c2ccccc2)Cc2cccc(Cl)c21 (centres undefined)	25	–	–
5	44	4.7	–	–	NC1=NC(c2ccc(F)cc2)Cc2c(F)cccc21 (centres undefined)	–	–	–
30	86	–	–	–	NC1=NC(c2ccc(Cl)cc2)Cc2ccccc21 (centres undefined)	–	46	–
–	–	–	47% and < 25%	–	NC1=NC(c2ncc[nH]2)Cc2ccccc21 (centres undefined)	<25	–	–
16	–	–	< 25%	350	NC1=NC(c2ccc(F)cc2)Cc2cccc(F)c21 (centres undefined)	–	–	–
10	–	–	< 25%	–	CC1(C)Cc2ccccc2C(N)=N1	–	–	–
100	5	–	39%	350	NC1=NC(c2ccc(F)cc2)Cc2cccc(Cl)c21 (centres undefined)	–	–	–
10	9	–	< 25%	–	NC1=NC(c2cccc(F)c2)Cc2ccccc21 (centres undefined)	–	–	–
2	12	–	–	–	NC1=NCCCc2ccccc21	–	–	< 25
1.5	3.6	1.3	–	300	NC1=NC(C2CC2)Cc2ccccc21 (centres undefined)	–	–	–
3	4	18	–	–	CC1Cc2ccccc2C(N)=N1 (centres undefined)	–	–	–
0.4	2	32	–	–	NC1=NCCc2ccccc21	–	–	–
12	9	–	< 25%	–	NC1=NC(c2ccccc2)Cc2ccccc21 (centres undefined)	–	–	–
9	40	5.5	–	–	NC1=NC(c2ccc(F)cc2)Cc2ccccc21 (centres undefined)	–	–	–
1.6	2.4	0.13	–	470	CC(=N)NCCCC[C@H](N)C(=O)O [L-NIL]	–	–	–
44	55	–	–	–	NC1=NC(c2ccc(F)cc2)Cc2ccc(F)cc21 (centres undefined)	–	43	–
2	80	0.55	–	130	NC1=NC(c2ccccc2)Cc2cccc(F)c21 (centres undefined)	–	–	–
8	19	4.2	–	880	NC1=NC(c2nccs2)Cc2ccccc21 (centres undefined)	–	–	–
2	8	2.7	–	–	NC1=NC(c2cccs2)Cc2ccccc21 (centres undefined)	–	–	–
13	44	33	–	–	NC1=NC(c2ccccc2F)Cc2ccccc21 (centres undefined)	–	–	–

Compound	IC50 (Nitric oxide synthase 1) [µM]	IC50 (Nitric oxide synthase 3) [µM]	IC50 [1] [µM]	inhibition [2]	IC50 [4] [µM]	Inhibition (Rattus norvegicus) [%]	Inhibition (DLD-1 [3]) [%]	Inhibition (DLD-1 [5]) [%]
C#CC1Cc2ccccc2C(N)=N1 (centres undefined)	0.4	0.9	2.7	–	–	–	–	–
N=C(N)NN [PIMAGEDINE]	6	72	4.5	–	–	–	–	–
COC(=O)[C@@H](N)CCCNC(=N)N[N+](=O)[O-] [L-NAME]	0.15	2.7	14	–	300	–	–	–
NC1=NC(c2ccco2)Cc2ccccc21 (centres undefined)	0.9	5	1.2	–	–	–	–	–
